Source: patent US20120213789A1, “New Molecular Target for Treatment of Cancer” (priority 2001, published 2012)

How the values were obtained:
[1] = tested on: C4-2B metastatic cell line; test: Secretion of soluble tPSA and fPSA under SPB treatment; assay type: cell-based, human; conditions: culture supernatants
Experimental: Cells were grown to 70-80% confluence at 37° C. and 5% CO2 in T-75 tissue culture plastic flasks. SPB stock solution was added to final concentrations of 0.5, 5.0, 10.0, and 25.0 mM in appropriate fresh media to the cell cultures. Cells were incubated at 37° C. and 5% CO2 for 72 hours. Attached cells were then harvested using a solution of 0.05% trypsin and 0.53 mM EDTA (Invitrogen Corp.). Attached cells were then pooled with any the detached cells and washed with PBS pH 7.2. Cell numbers and percent viability were determined using Trypan blue dye exclusion and a hemacytometer. At the time of their use in an experiment the viability was usually about 85% for untreated cells and a range of about 15-70% for treated cells, with the lower viabilities found at higher SPB concentrations (Thompson C, 1995; Cory et al., 1998; van Engeland et al., 1996). […] The data confirms the biological differences in these three cell lines and provides a stronger basis upon which to assess the behavior of the UC28 gene under the same SPB treatment conditions. For both of these experiments, supernatants were collected from the same experiments as in Example 1; cells were collected and assayed for apoptosis as well as for UC28 antigen expression using antibodies to SEQ ID NO:4.

LNCaP Prostate Cell Line = test: Dual label UC28/AnnexinV flow cytometry after SPB treatment; assay type: cell-based, human; conditions: for Total AnnexV / Total UC28C: 72 hours, UC28-GAR-CY5/AnnexV-FITC
Experimental: (§1) Cells were grown to 70-80% confluence at 37° C. and 5% CO2 in T-75 tissue culture plastic flasks. SPB stock solution was added to final concentrations of 0.5, 5.0, 10.0, and 25.0 mM in appropriate fresh media to the cell cultures. Cells were incubated at 37° C. and 5% CO2 for 72 hours. Attached cells were then harvested using a solution of 0.05% trypsin and 0.53 mM EDTA (Invitrogen Corp.). Attached cells were then pooled with any the detached cells and washed with PBS pH 7.2. Cell numbers and percent viability were determined using Trypan blue dye exclusion and a hemacytometer. At the time of their use in an experiment the viability was usually about 85% for untreated cells and a range of about 15-70% for treated cells, with the lower viabilities found at higher SPB concentrations (Thompson C, 1995; Cory et al., 1998; van Engeland et al., 1996).
VO1 Apoptosis Detection Kit contains: (1) Fluorocein-isothiocyante (FITC) conjugated AnnexinV [AnnexinV01] 1 ml (2) Propidium Iodide [Annex-Pi] 2.0 ml (3) 4× Binding Buffer [Annex-B] 20.0 ml. Vendor is CalTag Laboratories, Inc., 1849 Bayshore Boulevard #200 Burlingame, Calif. 94010.
UC28(C) is 2.14 mg/ml rabbit polyclonal aliquot directed against the inventors' UC28 patented biomarker developed by UCor R&D gene discovery program. The Antibody was produced against a twenty amino acid (AA) synthetic peptide from the predicted AA sequence (AA 21-37) UCor, Inc. 840 Research Parkway Oklahoma City, Okla. 73104.
Goat Anti-Rabbit CY5 polyclonal Fluorchrome was used as the secondary conjugate for UC28 C rabbit polyclonal antibody and a background control for UC28 C polyclonal. Vendor is Jackson ImmunoResearch Laboratories, Inc. 872 West Baltimore Pike, P.O. Box 9 West Grove, Pa. 19390.
MsIgG-FITC mouse conjugated-FITC was used for background control for AnnexinV01. Vendor is Becicman Coulter, Inc. Diagnostic Division, 11800 SW 147th Ave. M/S 42-003, P.O. Box 169015, Miami, Floridia 33116-9015.
A Coulter Elite engineered with a triple laser system was used to analyze all samples. Coulter control beads were used to align lasers for the dual label testing of cell samples. Laser alignment was required for both the Argon (488 nm line) laser and HeNe (633 nm line) laser. These alignments were performed prior to all measurements with the Argon laser (488 nm line) using fluorophores for FITC, RPE, PI and the HeNe laser (633 nm line) for the Cy5 fluorophores being used for the experiments described below. The histographs, voltage settings, gates, color compensation, and pressures were established prior to all sample processing. […]
UC28 and Annexin V were co-labeled in the three cell lines to assess the induction of UC28 by SPB and its correlation to the induction of apoptosis. […] It may be noted that in previously published experiments, AnnexinV and PI were run in combination with several prostate cancer cell lines, one of which was LNCaP, but not with C4-2B or MLC-SV40. It was determined that they produced similar dose-response kinetics when exposed to 0.5-25 mM of SPB for 72 hours (Ng et al., 1989). That is, as the dose of SPB increased, so did the membrane perturbation events measured by these two methods.

[2] = tested on: MLC-SV40 immortalized normal cells; test: Dose-response kinetics of UC28 protein expression by flow cytometry; assay type: cell-based; conditions: 0.5 to 25 mM SPB
Experimental: as §1, with “1996). UC28(C) is 2.14 mg/ml rabbit polyclonal aliquot directed against the inventors' UC28 patented biomarker developed by UCor R&D gene discovery program. The Antibody was produced against a […] (AA) synthetic peptide from the predicted AA sequence (AA 21-37) UCor, Inc. 840 Research Parkway Oklahoma City, Okla. 73104. Goat Anti-Rabbit CY5 polyclonal Fluorchrome was used as the secondary conjugate for UC28 C rabbit polyclonal antibody and a background control for UC28 C polyclonal. […]” for “1996).”

O=C([O-])CCCc1ccccc1.[Na+] [SPB, 4-Phenylbutyric Acid, Sodium Salt]
fPSA production [1]: down-regulated | tPSA production [1]: down-regulated | Total AnnexV (LNCaP Prostate Cell Line; 0.5 mM SPB): 10.6% | Total UC28C (LNCaP Prostate Cell Line; 0.5 mM SPB): 28.0% | Total AnnexV (LNCaP Prostate Cell Line; 5.0 mM SPB): 44.7% | Total UC28C (LNCaP Prostate Cell Line; 5.0 mM SPB): 55.8% | Total AnnexV (LNCaP Prostate Cell Line; 10 mM SPB): 33.6% | Total UC28C (LNCaP Prostate Cell Line; 10 mM SPB): 66.4% | Total AnnexV (LNCaP Prostate Cell Line; 25 mM SPB): 89.2% | Total UC28C (LNCaP Prostate Cell Line; 25 mM SPB): 67.4% | UC28 up regulation (LNCaP Prostate Cell Line; SPB, summary of Table 5): up regulated | induction of apoptosis (LNCaP Prostate Cell Line; SPB, summary of Table 5): induced | UC28 membrane protein expression [2]: do not over express
